COCCOC(=O)C1=C(C)NC(C)=C(C(=O)OCCOC)C1c1ccccc1Cl [Example 10, Bis(2-methoxyethyl) 4-(2-chlorophenyl)-1,4-dihydro-2,6-dimethylpyridine-3,5-dicarboxylate]
melting point: 120 to 121 °C

CC1=C(C(=O)OC(C)(C)C)C(c2ccc(Br)cc2F)C(C(=O)OC(C)(C)C)=C(C)N1 [Example 44, Di-tert-butyl 4-(4-bromo-2-fluorophenyl)-1,4-dihydro-2,6-dimethylpyridine-3,5-dicarboxylate]
melting point: 187 to 188 °C

CCOC(=O)C1=C(C)NC(C)=C(C(=O)OC)C1c1ccccc1Cl (stereo not drawn) [Example 56, 3-Ethyl 5-methyl 4-(2-chlorophenyl)-1,4-dihydro-2,6-dimethylpyridine-3,5-dicarboxylate]
melting point: 125 to 127 °C

CCOC(=O)C1=C(C)NC(C)=C(C(=O)OCC)C1c1ccccc1Br [Example 11, Diethyl 4-(2-bromophenyl)-1,4-dihydro-2,6-dimethylpyridine-3,5-dicarboxylate]
melting point: 144 to 145 °C

CCOC(=O)C1=C(C)NC(C)=C(C(=O)OCC)C1c1ccccc1[N+](=O)[O-] [Example 14, Diethyl 1,4-dihydro-2,6-dimethyl-4-(2-nitrophenyl)pyridine-3,5-dicarboxylate]
melting point: 120 to 121 °C

CC1=C(C(=O)OC(C)(C)C)C(c2cc(Br)ccc2F)C(C(=O)OC(C)(C)C)=C(C)N1 [Example 48, Di-tert-butyl 4-(5-bromo-2-fluorophenyl)-1,4-dihydro-2,6-dimethylpyridine-3,5-dicarboxylate]
melting point: 173 to 174 °C

CCOC(=O)C1=C(C)NC(C)=C(C(=O)OCC)C1c1cccc(Cl)c1Cl [Example 31, Diethyl 4-(2,3-dichlorophenyl)-1,4-dihydro-2,6-dimethylpyridine-3,5-dicarboxylate]
melting point: 125 to 126 °C

COC(=O)C1=C(C)NC(C)=C(C(C)=O)C1c1ccccc1Cl (stereo not drawn) [Example 57, Methyl 5-acetyl-4-(2-chlorophenyl)-1,4-dihydro-2,6-dimethylpyridine-3-carboxylate]
melting point: 183 to 184 °C

CCOC(=O)C1=C(C)NC(C)=C(C(=O)OCC)C1c1ccc(F)cc1 [Example 51, Diethyl 4-(4-fluorophenyl)-1,4-dihydro-2,6-dimethylpyridine-3,5-dicarboxylate]
melting point: 150 to 151 °C

CCOC(=O)C1=C(C)NC(C)=C(C(=O)OCC)C1c1cc(Br)ccc1F [Example 47, Diethyl 4-(5-bromo-2-fluorophenyl)-1,4-dihydro-2,6-dimethylpyridine-3,5-dicarboxylate]
melting point: 118 to 119 °C

CC1=C(C(=O)OC(C)(C)C)C(c2ccc(Cl)cc2)C(C(=O)OC(C)(C)C)=C(C)N1 [Example 23, Di-tert-butyl 4-(4-chlorophenyl)-1,4-dihydro-2,6-dimethylpyridine-3,5-dicarboxylate]
melting point: 191.5 to 192.5 °C

CC1=C(C(=O)OC(C)(C)C)C(c2ccccc2Br)C(C(=O)OC(C)(C)C)=C(C)N1 [Example 14, Di-tert-butyl 4-(2-bromophenyl)-1,4-dihydro-2,6-dimethylpyridine-3,5-dicarboxylate]
melting point: 162 to 164 °C

C=CCOC(=O)C1=C(C)NC(C)=C(C(=O)OCC=C)C1c1ccc(Br)cc1 [Example 40, Diallyl 4-(4-bromophenyl)-1,4-dihydro-2,6-dimethylpyridine-3,5-dicarboxylate]
melting point: 130 to 131 °C

CCOC(=O)C1=C(C)NC(C)=C(C(=O)OCC)C1c1ccccc1Cl [Example 6, Diethyl 4-(2-chlorophenyl)-1,4-dihydro-2,6-dimethylpyridine-3,5-dicarboxylate]
melting point: 120 to 121 °C

CCOC(=O)C1=C(C)NC(C)=C(C(=O)OCC)C1c1cc(Cl)cc(Cl)c1 [Example 37, Diethyl 4-(3,5-dichlorophenyl)-1,4-dihydro-2,6-dimethylpyridine-3,5-dicarboxylate]
melting point: 102 to 104 °C

CC1=C(C(=O)OC(C)(C)C)C(c2ccccc2F)C(C(=O)OC(C)(C)C)=C(C)N1 [Example 13, Di-tert-butyl 4-(2-fluorophenyl)-1,4-dihydro-2,6-dimethylpyridine-3,5-dicarboxylate]
melting point: 201 to 202 °C

COCC1=C(C(=O)OC)C(c2ccc(Br)cc2)C(C(=O)OC)=C(COC)N1 [Example 53, Dimethyl 4-(4-bromophenyl)-1,4-dihydro-2,6-bis(methoxymethyl)pyridine-3,5-dicarboxylate]
melting point: 162 to 163 °C

CCOC(=O)C1=C(C)NC(C)=C(C(=O)OCC)C1c1ccc(Br)cc1F [Example 43, Diethyl 4-(4-bromo-2-fluorophenyl)-1,4-dihydro-2,6-dimethylpyridine-3,5-dicarboxylate]
melting point: 154 to 155 °C

CC1=C(C(=O)OC(C)(C)C)C(c2cccc(F)c2)C(C(=O)OC(C)(C)C)=C(C)N1 [Example 50, Di-tert-butyl 4-(3-fluorophenyl)-1,4-dihydro-2,6-dimethylpyridine-3,5-dicarboxylate]
melting point: 178 to 179 °C

CC1=C(C(=O)OC(C)(C)C)C(c2ccccc2Cl)C(C(=O)OC(C)(C)C)=C(C)N1 [Example 9, Di-tert-butyl 4-(2-chlorophenyl)-1,4-dihydro-2,6-dimethylpyridine-3,5-dicarboxylate]
melting point: 194 to 196 °C

CCOC(=O)C1=C(C)NC(C)=C(C(=O)OC)C1c1ccccc1Br (stereo not drawn) [Example 58, 3-Ethyl 5-methyl 4-(2-bromophenyl)-I14-dihydro-2,6-dimethylpyridine-3,5-dicarboxylate]
melting point: 134.5 to 135.5 °C

COC(=O)C1=C(C)NC(C)=C(C(C)=O)C1c1ccccc1Br (stereo not drawn) [Example 59, Methyl 5-acetyl-4-(2-bromophenyl)-1,4-dihydro-2,6-dimethylpyridine-3-carboxylate]
melting point: 146 to 148 °C

CCOC(=O)C1=C(C)NC(C)=C(C(=O)OCC)C1c1cccc(Br)c1 [Example 24, Diethyl 4-(3-bromophenyl)-1,4-dihydro-2,6-dimethylpyridine-3,5-dicarboxylate]
melting point: 125 to 126 °C

COCCOC(=O)C1=C(C)NC(C)=C(C(=O)OCCOC)C1c1ccc(Br)cc1 [Example 46, Bis(2-methoxyethyl) 4-(4-bromophenyl)-1,4-dihydro-2,6-dimethylpyridine-3,5-dicarboxylate]
melting point: 116 to 117 °C

COC(=O)C1=C(C)NC(C)=C(C(=O)OC)C1c1ccccc1Cl [Example 8, Dimethyl 4-(2-chlorophenyl)-1,4-dihydro-2,6-dimethylpyridine-3,5-dicarboxylate]
melting point: 188 to 189 °C

CC1=C(C(=O)OC(C)(C)C)C(c2ccccc2[N+](=O)[O-])C(C(=O)OC(C)(C)C)=C(C)N1 [Example 15, Di-tert-butyl 1,4-dihydro-2,6-dimethyl-4-(2-nitrophenyl)pyridine-3,5-dicarboxylate]
melting point: 159 to 161 °C

CCOC(=O)C1=C(C)NC(C)=C(C(=O)OCC)C1c1ccc(F)c(Br)c1 [Example 41, Diethyl 4-(3-bromo-4-fluorophenyl)-1,4-dihydro-2,6-dimethylpyridine-3,5-dicarboxylate]
melting point: 118 to 119 °C

COCCOC(=O)C1=C(C)NC(C)=C(C(=O)OCCOC)C1c1cccc(Br)c1 [Example 45, Bis(2-methoxyethyl) 4-(3-bromophenyl)-1,4-dihydro-2,6-dimethylpyridine-3,5-dicarboxylate]
melting point: 124.5 to 125.5 °C

CC1=C(C(=O)OC(C)(C)C)C(c2ccc(C)cc2C)C(C(=O)OC(C)(C)C)=C(C)N1 [Example 55, Di-tert-butyl 1,4-dihydro-2,6-dimethyl-4-(2,4-dimethylphenyl)pyridine-3,5-dicarboxylate]
melting point: 197 to 198 °C

CCOC(=O)C1=C(C)NC(C)=C(C(=O)OCC)C1c1cccc(F)c1F [Example 38, Diethyl 4-(2,3-difluorophenyl)-1,4-dihydro-2,6-dimethylpyridine-3,5-dicarboxylate]
melting point: 161 to 162 °C

CCOC(=O)C1=C(C)N(Cc2ccccc2)C(C)=C(C(=O)OCC)C1c1ccc(Br)cc1 [Example 54, Diethyl 1-benzyl-4-(4-bromophenyl)-1,4-dihydro-2,6-dimethylpyridine-3,5-dicarboxylate]
melting point: 168 to 169 °C

CC1=C(C(=O)OC(C)(C)C)C(c2ccc(Br)cc2)C(C(=O)OC(C)(C)C)=C(C)N1 [Example 27, Di-tert-butyl 4-(4-bromophenyl)-1,4-dihydro-2,6-dimethylpyridine-3,5-dicarboxylate]
melting point: 206 to 207 °C

CCOC(=O)C1=C(C)NC(C)=C(C(=O)OCC)C1c1c(Cl)cccc1Cl [Example 36, Diethyl 4-(2,6-dichlorophenyl)-1,4-dihydro-2,6-dimethylpyridine-3,5-dicarboxylate]
melting point: 134 to 135 °C

COCC1=C(C(=O)OC)C(c2ccccc2Cl)C(C(=O)OC)=C(COC)N1 [Example 17, Dimethyl 4-(2-chlorophenyl)-1,4-dihydro-2,6-bis(methoxymethyl)pyridine-3,5-dicarboxylate]
melting point: 137 to 138 °C

CCOC(=O)C1=C(C)NC(C)=C(C(=O)OCC)C1c1cc(Cl)ccc1Cl [Example 34, Diethyl 4-(2,5-dichlorophenyl)-1,4-dihydro-2,6-dimethylpyridine-3,5-dicarboxylate]
melting point: 166.5 to 167.5 °C

CC1=C(C(=O)OC(C)(C)C)C(c2ccc(F)cc2)C(C(=O)OC(C)(C)C)=C(C)N1 [Example 52, Di-tert-butyl 4-(4-fluorophenyl)-1,4-dihydro-2,6-dimethylpyridine-3,5-dicarboxylate]
melting point: 149 to 150 °C

C=CCOC(=O)C1=C(C)NC(C)=C(C(=O)OCC=C)C1c1ccccc1Cl [Example 16, Diallyl 4-(2-chlorophenyl)-1,4-dihydro-2,6-dimethylpyridine-3,5-dicarboxylate]
melting point: 98 to 99 °C

CC1=C(C(=O)OC(C)(C)C)C(c2cc(Cl)ccc2Cl)C(C(=O)OC(C)(C)C)=C(C)N1 [Example 35, Di-tert-butyl 4-(2,5-dichlorophenyl)-1,4-dihydro-2,6-dimethylpyridine-3,5-dicarboxylate]
melting point: 181 to 183 °C

COC(=O)C1=C(C)NC(C)=C(C(=O)OC)C1c1ccccc1Br [Example 19, Dimethyl 4-(2-bromophenyl)-1,4-dihydro-2,6-dimethylpyridine-3,5-dicarboxylate]
melting point: 164 to 165 °C
